Measurements taken from patent publication US20050129662A1 (priority 2002, published 2005).

Tests used:
Type in all cases: in vivo
[1] = test system: peronospora (Plasmopara viticola); assay: Open-field fight against peronospora on muscat vine (Examples 2-6); conditions: 11 interventions
Source text: (§1) All tables and related theses reproduced herein result from an experimental activity carried out in the open field following precise protocols and experimental guidelines.
(§2) The aim of this experimental activity was that of verifying the possibility of reducing the amount of the chemical formulation employed, while keeping the activity of same unchanged towards adversities to be fought (peronospora, mildew and Panonychus ulmi), thanks to addition of the adjuvant, preferably soybean oil.
(§3) The methodologies for detection of the efficiency results were selected depending on: the pathology to be fought, infection, % spreading of the disease for peronospora, mildew and acid rot, and depending on the count of the mite number per leaf in the fight tests against Panonychus ulmi.
(§4) Among the great number of statistical tests interpreting the experimental data items, Duncan test in the scientific field is considered as one of the best evaluation instruments for significance of the experimental data items. […] Example: 12.5a 0.9b 0.3b

[2] = test system: Lactuga sativa; assay: Composite chemical weedkilling, spraying on trays of lettuce plants (Examples 12-15); conditions: 1 intervention; for % devitalization T + 14: 14 days from treatment; for % devitalization T + 27: 27 days from treatment
Source text: • Treatment: 300 l/ha of solution were sprayed • Experimental pattern: spraying on 4 trays, each containing 8 lettuce plants • Flower survey: carried out after 14 days from treatment (T), (T+14), and after 27 days (T+27), stating the devitalization degree in percentage
Test target: Composite chemical weedkilling (Lactuga sativa)
With reference to the active ingredients employed in examples 12-15, it was an aim of this experimental research to verify the influence of the emulsion addition on the herbicide activity towards a target weed belonging to the compositae family. By virtue of the high herbicide activity of weedkillers, when applied in the amounts on the label, and in order to highlight possible efficiency variations of same among the different theses dealt with, all active ingredients were employed alone in amounts reduced by ⅓ and reduced by ⅓ in an extemporaneous mixture with the emulsion being the object of the present invention. Example: should the active ingredients have been employed to the amounts reproduced on the label, it would have been very likely to obtain a 100% devitalization of the weed with the active ingredient alone and in a mixture with the emulsion.
As to the methodologies for efficiency detection, a visual estimation was selected, by allocating a % value to the overall devitalizing activity observed on the target plant.

[3] = test system: Panonychus ulmi; assay: Open-field fight against Panonychus ulmi on muscat vine (Examples 8-10); conditions: 1 intervention
Source text: as §1, §2, §3, §4

[4] = test system: mildew (Uncinula necator); conditions: muscat vine; 4795 g or ml/ha; 6 interventions

CO/C=C(/C(=O)OC)c1ccccc1Oc1cc(Oc2ccccc2C#N)ncn1 [Azoxystrobin]
% infection on bunches ([1]; 250 g or ml/ha): 0.0 b % | % spreading on bunches ([1]; 250 g or ml/ha): 0.0 b % | Action Degree ([1]; 250 g or ml/ha): 100

CCCCCCCC(=O)Oc1c(Br)cc(C#N)cc1Br [Bromoxynil octanoate]
% devitalization T + 14 ([2]; 356 g or ml/ha): 56.0% | % devitalization T + 27 ([2]; 356 g or ml/ha): 67.5%

O=C(O)c1nc(Cl)ccc1Cl [Clopyradil]
% devitalization T + 14 ([2]; 100 g or ml/ha): 85.0% | % devitalization T + 27 ([2]; 100 g or ml/ha): 87.5%

COc1ccc(C(=CC(=O)N2CCOCC2)c2ccc(Cl)cc2)cc1OC [Dimethomorph]
% infection on bunches ([1]; 1050 g or ml/ha): 0.0 b % | % spreading on bunches ([1]; 1050 g or ml/ha): 0.0 b % | Action Degree ([1]; 1050 g or ml/ha): 100

O=C(NC(=O)c1c(F)cccc1F)Nc1ccc(Oc2ccc(C(F)(F)F)cc2Cl)cc1F [Flufenoxuron]
Action Degree ([3]; 50 g or ml/ha): 68.0 | Mites per leaf 1 ([3]; 50 g or ml/ha): 1.1 b | Mites per leaf 2 ([3]; 50 g or ml/ha): 3.0 b

O=C1c2ccccc2C(=O)N1SC(Cl)(Cl)Cl [Folpet]
% infection on bunches ([1]; 1200 g or ml/ha): 0.0 b % | % spreading on bunches ([1]; 1200 g or ml/ha): 0.0 b % | Action Degree ([1]; 1200 g or ml/ha): 100

O=C(O)CNCP(=O)(O)O [Gliphosate]
% devitalization T + 14 ([2]; 360 g or ml/ha): 32.0% | % devitalization T + 27 ([2]; 360 g or ml/ha): 90.0%

C[C@@H]1[C@@H](c2ccc(Cl)cc2)SC(=O)N1C(=O)NC1CCCCC1 [Hexythiazox]
Action Degree ([3]; f.c. 30 g or ml/ha): 91.6 | Mites per leaf 1 ([3]; f.c. 30 g or ml/ha): 0.0 b | Mites per leaf 2 ([3]; f.c. 30 g or ml/ha): 0.6 b

O=c1[nH]c2c(c(=O)n1C1CCCCC1)CCC2 [Lenacil]
% devitalization T + 14 ([2]; 150 g or ml/ha): 11.0% | % devitalization T + 27 ([2]; 150 g or ml/ha): 30.0%

S1SSSSSSS1 [Sulphur]
% infection on bunches [4]: 2.2 b % | % spreading on bunches [4]: 12.5 bd % | Action Degree [4]: 85.7

CCc1nn(C)c(C(=O)NCc2ccc(C(C)(C)C)cc2)c1Cl [Tebufenpyrad]
Action Degree ([3]; 125 g or ml/ha): 80.8 | Mites per leaf 1 ([3]; 125 g or ml/ha): 0.4 b | Mites per leaf 2 ([3]; 125 g or ml/ha): 1.1 b

Fosetyl-Aluminium
% infection on bunches ([1]; 960 g or ml/ha): 0.3 b % | % spreading on bunches ([1]; 960 g or ml/ha): 0.8 b % | Action Degree ([1]; 960 g or ml/ha): 87.2

Mancozeb
% infection on bunches ([1]; 1470 g or ml/ha): 0.2 b % | % spreading on bunches ([1]; 1470 g or ml/ha): 0.3 b % | Action Degree ([1]; 1470 g or ml/ha): 97.4
